Measured values: patent US20090143418A1, “Compositions and Methods for Preventing and Treating Hair Growth Cycle-Related Conditions” (THE REGENTS OF THE UNIVERSITY OF MICHIGAN, priority 2007, published 2009)
Values joined by “and” are separate entries in the source; they are usually repeats but may differ in a detail not shown here. Equal values may be shown once.

How the values were obtained:
[1] = test system: wild-type nonirradiated mice; experiment: Depilation-induced hair cycle, skin pigmentation onset; assay type: in vivo, mouse; conditions: 4 mg/kg starting the day after depilation
Description: (§1) Rapamycin: Rapamycin (LC Laboratories) was administered by intraperitoneal injection. Rapamycin was reconstituted in ethanol (10 mg/ml or 1 mg/ml) and diluted into a solution of 5% Tween-80 (Sigma) and 5% PEG-400 (Hampton Research). The final volume injected was […]. Dosing and administration regimes were as indicated in Example II.
Depilation: Mice were anesthetized by intraperitoneal injection of 80 mg/kg of ketamine and 4 mg/kg of […] dissolved in HBSS. Final injection volume was 200 μl. The dorsal hair of the mice was then shaved with conventional clippers, and a commercial depilatory cream (Veet®) was applied liberally to an area of approximately 1.5×1.5 cm. After 5 minutes, the cream was washed off the mouse using warm water, and the mouse was gently dried using paper towels.
In analyzing the frequency of hair follicles that contained X-gal+ melanocytes, it became apparent that the hair follicles of rapamycin treated animals were less frequently in mature stages of the hair cycle (see FIG. 4). […] As such, a region of the lower back of wild-type nonirradiated mice was shaved and depilated. Depilation induced a new hair growth cycle, thereby permitting to test if in this context rapamycin could prevent the onset of or lengthen the duration of the hair cycle. […]

DCT-LacZ mice [2] = experiment: DCT-LacZ (X-gal) staining of skin, hair follicles containing melanocyte progenitors; assay type: in vivo, mouse; conditions: for percentage of hair follicles containing DCT-LacZ+ cells, Average: 11.2 grays irradiation, rapamycin 4 mg/kg/day i.p.; for percentage of hair follicles containing DCT-LacZ+ cells, individual mouse: individual animals (Mouse 1-4), 4 mg/kg/day i.p., 4 mg/kg/day
Description: Mice: DCT-LacZ mice were backcrossed for 3 generations on a C57BL background.
Irradiation and Bone Marrow Transplant: Adult recipient mice were irradiated using a gamma cell irradiator. Mice received two doses of 560 rads each delivered 3 hours apart (FIGS. 1-4, FIG. 7, Table 1). Mice received 1,000,000 whole bone marrow cells isolated from a C57BL donor (FIGS. 1-4, FIG. 7, Table 1). Bone marrow cells were suspended in HBSS free with 2% Bovine Serum and injected via the retro orbital venous sinus. Where indicated, mice were sublethally irradiated with 650 rads and not subjected to bone marrow transplant (FIG. 6).
as §1
(§2) DCT-LacZ Staining A 2×2 cm patch of skin was harvested with dissecting scissors from euthanized DCT-LacZ mice. The skin patch was washed in phosphate buffer (0.5M Na2HPO4, 0.5M NaH2PO4, 2 mM MgC12, 0.02% NP-40, 0.01% sodium deoxycolate), and then fixed on ice in 0.2% glutaraldehyde in phosphate buffer for 30 minutes. While being fixed, the skin samples were microwaved in fixation solution on ice for 20 seconds. After fixation, the samples were washed and the adipose layer was removed by dissection. After another washing, the skin samples were stained in 1 mg/ml X-gal in phosphate buffer for 2.5 hours. After staining, samples were washed and roughly 1 mm wide sections were made manually using a razor blade. Sections were mounted in 70% glycerol.
To better understand the effects of rapamycin on melanocyte progenitors, transplantation experiments in mice bearing a DCT-LacZ transgene, which is expressed by melanocyte progenitors in hair follicles, were conducted (see, e.g., Mackenzie, M. A., et al., Dev Biol 192, 99-107 (1997); Nishimura, E. K., et al., Nature 416, 854-60 (2002); each herein incorporated by reference in their entireties). This transgene expresses the bacterial LacZ gene under the control of the melanocyte specific promoter for the gene dopachrome tautomerase. These mice were used as recipients in similar transplants where 1 million whole bone marrow cells were irradiated and transplanted. The mice were treated with 0.4 mg/kg of rapamycin every other day for the first two weeks and then with 4 mg/kg/day after that. These mice were sacrificed at regular intervals, and their skin harvested and stained with X-gal.
Animals were sacrificed at each time point and stained with X-gal. The percentage of hair follicles containing DCT-LacZ+ cells was quantified.

DCT-LacZ mice [3] = experiment: Hair cycle stage (anagen) in skin sections of irradiated, transplanted DCT-LacZ mice; assay type: in vivo, mouse; conditions: 2/18 rapamycin treated animals versus 56% (10/18) vehicle; P=0.0001
Description: as §2
To better understand the effects of rapamycin on melanocyte progenitors, transplantation experiments in mice bearing a DCT-LacZ transgene, which is expressed by melanocyte progenitors in hair follicles, were conducted (see, e.g., Mackenzie, M. A., et al., Dev Biol 192, 99-107 (1997); Nishimura, E. K., et al., Nature 416, 854-60 (2002); each herein incorporated by reference in their entireties). This transgene expresses the bacterial LacZ gene under the control of the melanocyte specific promoter for the gene dopachrome tautomerase. […]

hirsutism = hirsutism patients; cited from earlier work

In the case of `CO[C@H]1C[C@@H]2CC[C@@H](C)[C@@](O)(O2)C(=O)C(=O)N2CCCC[C@H]2C(=O)O[C@H]([C@H](C)C[C@@H]2CC[C@@H](O)[C@H](OC)C2)CC(=O)[C@H](C)/C=C(\C)[C@@H](O)[C@@H](OC)C(=O)[C@H](C)C[C@H](C)/C=C/C=C/C=C/1C` [Rapamycin], the “days until pigmentation was visible in skin” value ([1]; n=5, vehicle 16.7 days, p=0.04) is reported as 25.2 days, the “delay of change in skin color (progression through anagen) versus vehicle” value ([1]; on average) is reported as 8 days and the “percentage of hair follicles containing DCT-LacZ+ cells, Average” value (“percentage … Average” below) (DCT-LacZ mice [2]; Week 8) is reported as 61.0%. For the same compound, the “percentage of hair follicles containing DCT-LacZ+ cells, individual mouse” value (shortened to “percentage … individual mouse”) (DCT-LacZ mice [2]; Week 8) was 77.0% and 45.0%, the “percentage … Average” value (DCT-LacZ mice [2]; Week 10) was 34.1% and the “percentage … individual mouse” value (DCT-LacZ mice [2]; Week 10) was 19.3% and 22.0% and 42.0% and 53.0%. For the same compound, the “percentage … Average” value (DCT-LacZ mice [2]; Week 12) was 48.3%, the “percentage … individual mouse” value (DCT-LacZ mice [2]; Week 12) was 54.0% and 39.0% and 52.0% and the “percentage … Average” value (DCT-LacZ mice [2]; Week 14) was 40.5%. The “percentage … individual mouse” value (DCT-LacZ mice [2]; Week 14) was 53.0% and 42.0% and 17.0% and 50.0% and the “animals with hairs in anagen” value (DCT-LacZ mice [3]) was 11%.
For `NCCCC(N)(C(=O)O)C(F)F` (stereo not drawn) [Eflornithine], the side effects (hirsutism) is given as “minor skin irritation, folliculitis, stinging, burning, tingling, acne, and/or rash”.
